Data: article PMC12700550, “DLL4^+ neutrophils promote Notch1-mediated endothelial PANoptosis to exacerbate acute lung injury in sepsis” (The Journal of Clinical Investigation, 2025)
Values joined by “and” are separate entries in the source; they are usually repeats but may differ in a detail not shown here. Identical values can stand only once.

Tests used:
ZBP1 = ZBP1 mRNA in lungs of CLP mice, RT-PCR; format: in vivo, mouse; conditions: 20 h; for lung ZBP1 mRNA (Figure 5A): 10 mg/kg NDI retro-orbital, vs sham, individual mice, 10 mg/kg
Protocol: Sepsis was induced in mice by cecal ligation and puncture (CLP) as described previously ([45], [46]). Mice were anesthetized with isoflurane to a surgical plane and placed in a supine position. CLP was performed through a midline laparotomy. The abdomen was shaved and disinfected. Through a 2 cm midline incision, the cecum was exposed and then ligated with a 4-0 silk suture 1 cm proximal from the distal cecal extremity. For 20-hour CLP experiments, the cecum was punctured twice with a 22-gauge needle. A small amount of cecal content was extruded through both holes, and the ligated cecum was returned to the peritoneal cavity. The wound was closed in layers. For 10-day sepsis survival studies, the cecum was punctured once with a 22-gauge needle. A small amount of cecal content was extruded. Mice were allocated to the vehicle and adoptive transfer of DLL4^+ neutrophils or DLL4^– neutrophils groups. Adoptive transfer mice received a retro-orbital injection of 1 × 10^6 cells per mouse DLL4^+ neutrophils or DLL4^– neutrophils in […] phosphate-buffered saline (PBS) immediately after abdominal closure in both the 20-hour experiments and the survival study. Vehicle groups received an equivalent volume of PBS, while treatment groups received NDI 10 mg/kg in […] PBS via retro-orbital injection after CLP. This dose was chosen primarily on the basis of our laboratory’s prior experience, we have consistently used this dose in mouse CLP models with reproducible efficacy and without observable toxicity ([39], [44]). Sham-operated animals underwent a laparotomy without CLP. After closure, the mice received a subcutaneous injection of 0.5 mL of normal saline to overcome surgery-induced dehydration. For 20-hour experiments, animals were not injected with antibiotics; however, for survival studies, animals were given 0.5 mg per kg body weight imipenem (lot 4D21K05, WG Critical Care LLC) subcutaneously in 0.5 mL saline once at the end of CLP. All mice were subcutaneously injected with a single dose of 0.1 mg/kg buprenorphine after CLP. […]

rmNotch1 = target: T1, rmNotch1 (Mus musculus, UniProt Q01705); assay: BIAcore assay (surface plasmon resonance), rmDLL4 to immobilized rmNotch1; format: binding, murine; conditions: 1 μg/mL NDI
T1 construct: purchased R&D Systems 5267-TK (rmNotch1); 1389-D4-050/CF (rmDLL4)
T1 sequence (Q9JI71 28-525 partner limits assumed): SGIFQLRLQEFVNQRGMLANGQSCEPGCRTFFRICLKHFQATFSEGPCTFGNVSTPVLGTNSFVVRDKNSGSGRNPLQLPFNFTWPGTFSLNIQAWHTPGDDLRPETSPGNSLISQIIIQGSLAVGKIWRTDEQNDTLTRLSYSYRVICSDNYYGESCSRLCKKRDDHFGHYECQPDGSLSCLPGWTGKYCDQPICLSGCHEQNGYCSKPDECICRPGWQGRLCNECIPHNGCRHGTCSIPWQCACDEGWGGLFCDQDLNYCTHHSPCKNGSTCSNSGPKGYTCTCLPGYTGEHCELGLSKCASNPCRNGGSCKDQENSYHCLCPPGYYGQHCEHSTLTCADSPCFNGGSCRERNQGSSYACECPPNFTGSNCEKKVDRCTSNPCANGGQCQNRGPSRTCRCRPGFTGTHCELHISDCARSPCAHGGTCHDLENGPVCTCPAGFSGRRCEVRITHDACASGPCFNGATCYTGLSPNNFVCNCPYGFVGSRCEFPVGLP
T1 sequence (Q01705 with tags, fused parts or gaps limits assumed): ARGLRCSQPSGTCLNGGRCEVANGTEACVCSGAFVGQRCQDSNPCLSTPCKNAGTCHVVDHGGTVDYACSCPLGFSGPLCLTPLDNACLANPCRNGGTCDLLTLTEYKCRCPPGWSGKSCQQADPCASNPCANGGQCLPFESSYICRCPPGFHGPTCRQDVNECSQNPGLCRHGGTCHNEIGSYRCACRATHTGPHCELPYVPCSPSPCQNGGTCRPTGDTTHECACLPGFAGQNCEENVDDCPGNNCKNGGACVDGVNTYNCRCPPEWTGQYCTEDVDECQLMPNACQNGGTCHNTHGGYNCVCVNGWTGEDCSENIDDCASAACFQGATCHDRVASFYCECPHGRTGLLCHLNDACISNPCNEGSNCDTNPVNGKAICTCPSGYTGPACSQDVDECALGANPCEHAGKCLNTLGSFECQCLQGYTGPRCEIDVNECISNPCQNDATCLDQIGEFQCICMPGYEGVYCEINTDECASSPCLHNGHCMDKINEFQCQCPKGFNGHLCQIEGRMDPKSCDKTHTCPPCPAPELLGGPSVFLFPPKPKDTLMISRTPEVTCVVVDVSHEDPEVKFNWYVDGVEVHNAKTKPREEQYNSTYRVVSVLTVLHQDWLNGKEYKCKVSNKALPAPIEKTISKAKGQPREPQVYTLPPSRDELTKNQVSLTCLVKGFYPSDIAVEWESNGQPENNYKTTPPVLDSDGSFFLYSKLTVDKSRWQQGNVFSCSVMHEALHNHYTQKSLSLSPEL
Protocol: To determine rmDLL4’s direct interaction with rmNotch1, surface plasmon resonance (OpenSPR, Nicoya) was performed. High-sensitivity nitrilotriacetic acid (HS-NTA) sensors were used. Binding reactions were performed in running buffer (PBS, 0.005% P20, pH 7.4). The HS-NTA sensor was first cleaned by injection with 10 mM HCl (150 μL) followed by injection of 150 μL of 350 mM EDTA. […] For the effect of NDI efficacy on rmDLL4 binding to rmNotch1, the same HS-NTA sensor was used. rmDLL4 at all the concentrations used for binding with rmNotch1 was preincubated with 1 μg/mL NDI for 30 minutes at room temperature, and then the complexes were injected to channels 1 and 2. Binding reactions were carried out with the same running buffer at a flow rate of 40 μL/min at 20°C. Channel 1 was used as a control to evaluate nonspecific binding. The real-time interaction data were analyzed by Trace Drawer (Nicoya). The signals from channel 1 were subtracted from channel 2 coated with the ligand for all samples. Data were globally fitted for 1:1 binding (one-to-one model).

C57BL/6 mice, CLP sepsis = assay: Serum aspartate aminotransferase (AST), CLP mice; format: in vivo, mouse; set-up: serum AST (Figure 6B): unit not given here; conditions: 20 h; for serum AST (Figure 6B): 10 mg/kg NDI, individual mice
Protocol: Sepsis was induced in mice by cecal ligation and puncture (CLP) as described previously ([45], [46]). Mice were anesthetized with isoflurane to a surgical plane and placed in a supine position. CLP was performed through a midline laparotomy. The abdomen was shaved and disinfected. Through a 2 cm midline incision, the cecum was exposed and then ligated with a 4-0 silk suture 1 cm proximal from the distal cecal extremity. […] A small amount of cecal content was extruded through both holes, and the ligated cecum was returned to the peritoneal cavity. The wound was closed in layers. […] A small amount of cecal content was extruded. […] Vehicle groups received an equivalent volume of PBS, while treatment groups received NDI 10 mg/kg in […] PBS via retro-orbital injection after CLP. This dose was chosen primarily on the basis of our laboratory’s prior experience, we have consistently used this dose in mouse CLP models with reproducible efficacy and without observable toxicity ([39], [44]). Sham-operated animals underwent a laparotomy without CLP. After closure, the mice received a subcutaneous injection of 0.5 mL of normal saline to overcome surgery-induced dehydration. […] All mice were subcutaneously injected with a single dose of 0.1 mg/kg buprenorphine after CLP. Serum levels of alanine aminotransferase, aspartate aminotransferase, and lactate dehydrogenase were determined using specific colorimetric enzymatic assays (Pointe Scientific Inc.) according to the manufacturer’s instructions.

Sequence: ECAGSPCHNGGTCEDGI [NDI]
- lung ZBP1 mRNA (Figure 5A) (ZBP1; DLL4^+ neutrophils i.v. + CLP): 2.489 fold change and 2.951 fold change and 0.6537 fold change and 1.296 fold change and 1.101 fold change and 2.543 fold change and 1.904 fold change and 2.345 fold change and 0.6068 fold change and 1.613 fold change and 2.244 fold change and 2.348 fold change and 0.6906 fold change
- effect on lung ZBP1 mRNA (ZBP1; DLL4^+ neutrophils/sepsis, 10 mg/kg NDI): effectively decreased ZBP1 expression
- lung ZBP1 mRNA (Figure 5A) (ZBP1; DLL4^– neutrophils + CLP): 3.779 fold change and 3.701 fold change and 3.374 fold change and 2.776 fold change and 2.9508 fold change and 2.383 fold change and 4.109 fold change and 2.422 fold change
- effect on Notch1-DLL4 interaction (rmNotch1): significantly disrupted Notch1-DLL4 interaction
- effect on serum AST (C57BL/6 mice, CLP sepsis; DLL4^+ neutrophil-injected CLP mice, 10 mg/kg): significantly reduced the serum levels of hepatic and cell injury markers and proinflammatory cytokines
- serum AST (Figure 6B) (C57BL/6 mice, CLP sepsis; DLL4^+ neutrophils + CLP): 63.648 and 54.808 and 59.67 and 72.046 and 53.04 and 50.83 and 58.786 and 52.156 and 37.57 and 64.974 and 46.852 and 66.3 and 46.41 and 34.918 and 42.432 and 51.272
- serum AST (Figure 6B) (C57BL/6 mice, CLP sepsis; DLL4^– neutrophils + CLP): 66.3 and 67.184 and 102.102 and 72.046 and 55.25 and 53.482 and 43.758 and 50.83
